# Results published in patent US9149038B2, “4-amino-6-(heterocyclic)picolinates and 6-amino-2-(heterocyclic)pyrimidine-4-carboxylates and their use as herbicides” (Dow AgroSciences LLC, priority 2013, dated 2015).
# Where two headings read alike, the source gives them in different places.
# Tests used:
# [1] = system: Key Broadleaf Weed and Crop Species; assay: Post-Emergent Test II: postemergent herbicidal activity, visual rating after 14 d (Table 7); format: in vivo; details: post-emergence, 336 h; for pest or weed control at 35 g/ha: 35 g ai/ha; for pest or weed control at 70 g/ha: 70 g ai/ha; for pest or weed control at 140 g/ha: 140 g ai/ha
# Outline: (§1)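 Visual 0-100% injury score (0 no injury, 100 complete kill) at 14 d post-spray, relative to untreated plants. Seedlings at 1st-2nd true leaf stage; track sprayer at 187 L/ha, highest rate plus ½×, ¼×, ⅛×, 1/16× serial dilutions. Subirrigated after treatment.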
# [2] = system: Key Grass and Sedge Weeds as well as Grass Crops; assay: Post-Emergent Test II: postemergent herbicidal activity, visual rating after 14 d (Table 8); format: in vivo; details: post-emergence, 336 h; for pest or weed control at 35 g/ha: 35 g ai/ha; for pest or weed control at 70 g/ha: 70 g ai/ha; for pest or weed control at 140 g/ha: 140 g ai/ha
# Outline: as §1
# [3] = lambsquarters (Chenopodium album), read-out: Visual Growth Reduction (%) 14 Days After Application CHEAL
# [4] = oilseed rape, canola (Brassica napus), read-out: Visual Growth Reduction (%) 14 Days After Application BRSNN
# [5] = redroot pigweed (Amaranthus retroflexus), read-out: Visual Growth Reduction (%) 14 Days After Application AMARE
# [6] = sunflower (Helianthus annuus), read-out: Visual Growth Reduction (%) 14 Days After Application HELAN
# [7] = velvetleaf (Abutilon theophrasti), read-out: Visual Growth Reduction (%) 14 Days After Application ABUTH
# [8] = wild poinsettia (Euphorbia heterophylla), read-out: Visual Growth Reduction (%) 14 Days After Application EPHHL
# [9] = barnyardgrass (Echinochloa crus-galli), read-out: Visual Growth Reduction (%) 14 Days After Application ECHCG
# [10] = giant foxtail (Setaria faberi), read-out: Visual Growth Reduction (%) 14 Days After Application SETFA
# [11] = maize, corn (Zea mays), read-out: Visual Growth Reduction (%) 14 Days After Application ZEAMX
# [12] = rice (Oryza sativa), read-out: Visual Growth Reduction (%) 14 Days After Application ORYSA
# [13] = wheat, spring (Triticum aestivum), read-out: Visual Growth Reduction (%) 14 Days After Application TRZAS
# [14] = yellow nutsedge (Cyperus esculentus), read-out: Visual Growth Reduction (%) 14 Days After Application CYPES
Structure (SMILES),"pest or weed control at 35 g/ha [1, 3]","pest or weed control at 70 g/ha [1, 3]","pest or weed control at 140 g/ha [1, 3]","pest or weed control at 35 g/ha [1, 4]","pest or weed control at 70 g/ha [1, 4]","pest or weed control at 140 g/ha [1, 4]","pest or weed control at 35 g/ha [1, 5]","pest or weed control at 70 g/ha [1, 5]","pest or weed control at 140 g/ha [1, 5]","pest or weed control at 35 g/ha [1, 6]","pest or weed control at 70 g/ha [1, 6]","pest or weed control at 140 g/ha [1, 6]","pest or weed control at 35 g/ha [1, 7]","pest or weed control at 70 g/ha [1, 7]","pest or weed control at 140 g/ha [1, 7]","pest or weed control at 35 g/ha [1, 8]","pest or weed control at 70 g/ha [1, 8]","pest or weed control at 140 g/ha [1, 8]","pest or weed control at 35 g/ha [2, 9]","pest or weed control at 70 g/ha [2, 9]",other results
COC(=O)c1nc(-c2ccc3c(c2)OC(F)(F)O3)c(Cl)c(N)c1Cl [Compound 1],0 to 29%,0 to 29%,0 to 29%,0 to 29%,0 to 29%,0 to 29%,0 to 29%,0 to 29%,0 to 29%,85 to 94%,85 to 94%,85 to 94%,0 to 29%,0 to 29%,0 to 29%,0 to 29%,0 to 29%,0 to 29%,45 to 59%,60 to 74%,"pest or weed control at 140 g/ha [2, 9]: 60 to 74%; pest or weed control at 35 g/ha [2, 10]: 0 to 29%; pest or weed control at 70 g/ha [2, 10]: 45 to 59%; pest or weed control at 140 g/ha [2, 10]: 45 to 59%; pest or weed control at 35 g/ha [2, 11]: 60 to 74%; pest or weed control at 70 g/ha [2, 11]: 60 to 74%; pest or weed control at 140 g/ha [2, 11]: 60 to 74%; pest or weed control at 35 g/ha [2, 12]: 0 to 29%; pest or weed control at 70 g/ha [2, 12]: 0 to 29%; pest or weed control at 140 g/ha [2, 12]: 0 to 29%; pest or weed control at 35 g/ha [2, 13]: 0 to 29%; pest or weed control at 70 g/ha [2, 13]: 0 to 29%; pest or weed control at 140 g/ha [2, 13]: 0 to 29%; pest or weed control at 35 g/ha [2, 14]: 0 to 29%; pest or weed control at 70 g/ha [2, 14]: 0 to 29%; pest or weed control at 140 g/ha [2, 14]: 0 to 29%"
C=Cc1c(C(=O)OC)nc(-c2cc3c(cc2F)OCO3)c(F)c1N [Compound 31],0 to 29%,0 to 29%,0 to 29%,0 to 29%,0 to 29%,45 to 59%,85 to 94%,85 to 94%,95 to 100%,45 to 59%,85 to 94%,85 to 94%,0 to 29%,0 to 29%,45 to 59%,95 to 100%,95 to 100%,95 to 100%,0 to 29%,60 to 74%,"pest or weed control at 140 g/ha [2, 9]: 75 to 84%; pest or weed control at 35 g/ha [2, 10]: 0 to 29%; pest or weed control at 70 g/ha [2, 10]: 0 to 29%; pest or weed control at 140 g/ha [2, 10]: 0 to 29%; pest or weed control at 35 g/ha [2, 11]: 0 to 29%; pest or weed control at 70 g/ha [2, 11]: 30 to 44%; pest or weed control at 140 g/ha [2, 11]: 45 to 59%; pest or weed control at 35 g/ha [2, 12]: 0 to 29%; pest or weed control at 70 g/ha [2, 12]: 0 to 29%; pest or weed control at 140 g/ha [2, 12]: 0 to 29%; pest or weed control at 35 g/ha [2, 13]: 0 to 29%; pest or weed control at 70 g/ha [2, 13]: 0 to 29%; pest or weed control at 140 g/ha [2, 13]: 0 to 29%; pest or weed control at 35 g/ha [2, 14]: 0 to 29%; pest or weed control at 70 g/ha [2, 14]: 0 to 29%; pest or weed control at 140 g/ha [2, 14]: 0 to 29%"
C=Cc1c(C(=O)O)nc(-c2ccc3c(c2)OC(F)(F)O3)c(F)c1N [Compound 30],0 to 29%,0 to 29%,0 to 29%,45 to 59%,60 to 74%,75 to 84%,0 to 29%,0 to 29%,0 to 29%,0 to 29%,0 to 29%,85 to 94%,45 to 59%,75 to 84%,75 to 84%,60 to 74%,75 to 84%,85 to 94%,75 to 84%,75 to 84%,"pest or weed control at 140 g/ha [2, 9]: 75 to 84%; pest or weed control at 35 g/ha [2, 10]: 0 to 29%; pest or weed control at 70 g/ha [2, 10]: 0 to 29%; pest or weed control at 140 g/ha [2, 10]: 0 to 29%; pest or weed control at 35 g/ha [2, 11]: 45 to 59%; pest or weed control at 70 g/ha [2, 11]: 60 to 74%; pest or weed control at 140 g/ha [2, 11]: 75 to 84%; pest or weed control at 35 g/ha [2, 12]: 0 to 29%; pest or weed control at 70 g/ha [2, 12]: 0 to 29%; pest or weed control at 140 g/ha [2, 12]: 0 to 29%; pest or weed control at 35 g/ha [2, 13]: 0 to 29%; pest or weed control at 70 g/ha [2, 13]: 0 to 29%; pest or weed control at 140 g/ha [2, 13]: 0 to 29%; pest or weed control at 35 g/ha [2, 14]: 0 to 29%; pest or weed control at 70 g/ha [2, 14]: 95 to 100%; pest or weed control at 140 g/ha [2, 14]: 95 to 100%"
